Measurements: patent publication US9499550B2 (BRISTOL-MYERS SQUIBB COMPANY, priority 2012, dated 2016)
Where two headings read alike, the source gives them in different places.

Tests used:
[1] = test system: HCV genotype 1a (H77 strain) replicon in HUH-7 cells; assay: HCV replicon luciferase reporter assay, genotype 1a; format: cell-based; settings: Hepatitis C virus, Huh-7, 72 h, HCV genotype 1a replicon luciferase, 3 days incubation
In short: (§1)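 Replicon inhibition for both genotypes was measured as Renilla luciferase signal (EnduRen, 7.5 μM final, 2 h) after 3-day, 37° C exposure of replicon-bearing HUH-7 cells in 4% FCS DMEM, 0.5% DMSO. The 1b construct carries S1179I; the 1a H77 construct carries P1496L and S2204I. Twenty-point, 3-fold dilutions were fitted four-parametrically for EC50, and CC50 was taken from multiplexed Cell Titer-Blue.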

[2] = test system: HCV genotype 1b (Con1) replicon in HUH-7 cells; assay: HCV replicon luciferase reporter assay, genotype 1b; format: cell-based; settings: Hepatitis C virus, Huh-7, 72 h, HCV genotype 1b replicon luciferase, 3 days incubation
In short: as §1

SMILES | EC50 ([1]; read-out: LE_1a (EC50)) | EC50 ([1]; read-out: LE_1a (EC50, range)) | EC50 ([2]; read-out: LE_1b (EC50)) | EC50 ([2]; read-out: LE_1b (EC50, range))
COc1ccc2c(O[C@@H]3C[C@H]4C(=O)N[C@]5(C(=O)NS(=O)(=O)C6(C)CC6)C[C@H]5/C=C\CC[C@@H](C)C[C@@H](C)[C@H](NC(=O)O[C@H](C)C(F)(F)F)C(=O)N4C3)nc(-c3ccc(OC(C)C)cc3)c(OC)c2c1 [Compound 5350, (R)-1,1,1-trifluoropropan-2-yl ((2R,6S,7R,9R,13aS,14aR,16aS,Z)-2-((3-(4-isopropoxyphenyl)-4,6-dimethoxyisoquinolin-1-yl)oxy)-7,9-dimethyl-14a-(((1-methylcyclopropyl)sulfonyl)carbamoyl)-5,16-dioxo-1,2,3,5,6,7,8,9,10,11,13a,14,14a,15,16,16a-hexadecahydrocyclopropa[e]pyrrolo[1,2-a][1,4]diazacyclopentadecin-6-yl)carbamate] | 2.12 nM | < 5.46 nM | 1.48 nM | < 5.46 nM
[2H]C([2H])([2H])C(OC(=O)N[C@@H]1C(=O)N2C[C@H](Oc3nc(-c4ccc(OC(C)C)cn4)cc4cc(OC)ccc34)C[C@H]2C(=O)N[C@]2(C(=O)NS(=O)(=O)C3CC3)C[C@H]2/C=C\CC[C@H](C)C[C@H]1C)(C([2H])([2H])[2H])C(F)(F)F [Compound 5204, 1,1,1,3,3,3-hexadeutero-2-(trifluoromethyl)propan-2-yl((2R,6S,7R,9S,13aS,14aR,16aS,Z)-14a-((cyclopropylsulfonyl)carbamoyl)-2-((3-(5-isopropoxypyridin-2-yl)-6-methoxyisoquinolin-1-yl)oxy)-7,9-dimethyl-5,16-dioxo-1,2,3,5,6,7,8,9,10,11,13a,14,14a,15,16,16a-hexadecahydrocyclopropa[e]pyrrolo[1,2-a][1,4]diazacyclopentadecin-6-yl)carbamate] |  | < 5.46 nM |  | < 5.46 nM
[2H]C([2H])([2H])C(C)(OC(=O)N[C@@H]1C(=O)N2C[C@H](Oc3nccc4cc(OC(C)C)ccc34)C[C@H]2C(=O)N[C@]2(C(=O)NS(=O)(=O)C3(C)CC3)C[C@H]2/C=C\CC[C@H](C)C[C@H]1C)C([2H])([2H])[2H] [Compound 5164] |  | 4.82 to 103 nM |  | 4.82 to 103 nM
COc1cc2ccccc2c(O[C@@H]2C[C@H]3C(=O)N[C@]4(C(=O)NS(=O)(=O)C5CC5)C[C@H]4/C=C\CC[C@@H](C)C[C@@H](C)[C@H](NC(=O)OC(C)(C)C)C(=O)N3C2)n1 [Compound 6011, tert-butyl ((2R,6S,7R,9R,13aS,14aR,16aS,Z)-14a-((cyclopropylsulfonyl)carbamoyl)-2-((3-methoxyisoquinolin-1-yl)oxy)-7,9-dimethyl-5,16-dioxo-1,2,3,5,6,7,8,9,10,11,13a,14,14a,15,16,16a-hexadecahydrocyclopropa[e]pyrrolo[1,2-a][1,4]diazacyclopentadecin-6-yl)carbamate] |  | < 5.46 nM |  | < 5.46 nM
COc1nnc(O[C@@H]2C[C@H]3C(=O)N[C@]4(C(=O)NS(=O)(=O)C5(C)CC5)C[C@H]4/C=C\CC[C@H](C)C[C@@H](C)[C@H](NC(=O)OC(C)(C)C)C(=O)N3C2)c2ccccc12 [Compound 5015, tert-butyl ((2R,6S,7R,9S,13aS,14aR,16aS,Z)-2-((4-methoxyphthalazin-1-yl)oxy)-7,9-dimethyl-14a-(((1-methylcyclopropyl)sulfonyl)carbamoyl)-5,16-dioxo-1,2,3,5,6,7,8,9,10,11,13a,14,14a,15,16,16a-hexadecahydrocyclopropa[e]pyrrolo[1,2-a][1,4]diazacyclopentadecin-6-yl)carbamate] |  | 4.82 to 103 nM |  | < 5.46 nM
